According to ChEMBL document CHEMBL1914287, “Synthesis and in vivo evaluation of [18F]N-(2-benzofuranylmethyl)-N'-[4-(2-fluoroethoxy)benzyl]piperazine, a novel σ1 receptor PET imaging agent” (Bioorg Med Chem Lett, 2011):
pIC50, pKi: −log10 of the molar value. Blank lines part the entries; values can stand above or below the compound they belong to.

Assays:
[1] = target: T1, Sigma non-opioid intracellular receptor 1 (Homo sapiens, UniProt Q99720); test: Binding affinity to sigma 1 receptor by radioligand displacement assay
[2] = Binding affinity to sigma 2 receptor by radioligand displacement assay
[3] = target: Sigma non-opioid intracellular receptor 1 (Cavia porcellus, UniProt Q60492); test: Binding affinity to sigma 1 receptor in guinea pig brain membrane; assay type: cell membranes
[4] = Binding affinity to sigma 2 receptor in guinea pig brain membrane; assay type: cell membranes, Cavia porcellus
Rhesus monkey [5] = test: Inhibition of sigma 2 receptor in conscious monkey brain at 220 to 802 MBq, iv; assay type: functional, organism-based; conditions: Macaca mulatta
Rhesus monkey [6] = test: Inhibition of sigma 1 receptor in conscious monkey brain at 220 to 802 MBq, iv; assay type: functional, organism-based; conditions: Macaca mulatta
[7] = Drug uptake in cerebellum of baboon brain at 100 MBq, iv measured within 5 mins by microPET imaging; assay type: ADME, organism-based; conditions: papio hamadryas, in vivo
[8] = Drug uptake in right striatum of baboon brain at 100 MBq, iv measured within 5 mins by microPET imaging; assay type: ADME, organism-based; conditions: papio hamadryas, in vivo
[9] = Drug uptake in cortex of baboon brain at 100 MBq, iv administered 5 mins after haloperidol challenge measured within 5 mins by microPET imaging; assay type: ADME, organism-based; conditions: papio hamadryas, in vivo
[10] = Drug uptake in thalamus of baboon brain at 100 MBq, iv measured within 5 mins by microPET imaging; assay type: ADME, organism-based; conditions: papio hamadryas, in vivo
[11] = Drug uptake in cortex of baboon brain at 100 MBq, iv measured after 60 mins by microPET imaging; assay type: ADME, organism-based; conditions: papio hamadryas, in vivo, 1 h
[12] = Drug uptake in right striatum of baboon brain at 100 MBq, iv administered 5 mins after haloperidol challenge measured after 60 mins by microPET imaging; assay type: ADME, organism-based; conditions: papio hamadryas, in vivo, 1 h
[13] = Drug uptake in right striatum of baboon brain at 100 MBq, iv administered 5 mins after haloperidol challenge measured within 5 mins by microPET imaging; assay type: ADME, organism-based; conditions: papio hamadryas, in vivo
[14] = Drug uptake in cortex of baboon brain at 100 MBq, iv administered 5 mins after haloperidol challenge measured within 3 mins by microPET imaging; assay type: ADME, organism-based; conditions: papio hamadryas, in vivo
[15] = Drug uptake in right striatum of baboon brain at 100 MBq, iv measured after 60 mins by microPET imaging; assay type: ADME, organism-based; conditions: papio hamadryas, in vivo, 1 h
[16] = Drug uptake in cerebellum of baboon brain at 100 MBq, iv measured after 60 mins by microPET imaging; assay type: ADME, organism-based; conditions: papio hamadryas, in vivo, 1 h
[17] = Drug uptake in thalamus of baboon brain at 100 MBq, iv administered 5 mins after haloperidol challenge measured after 60 mins by microPET imaging; assay type: ADME, organism-based; conditions: papio hamadryas, in vivo, 1 h
[18] = Drug uptake in right striatum of baboon brain at 100 MBq, iv administered 5 mins after haloperidol challenge measured within 3 mins by microPET imaging; assay type: ADME, organism-based; conditions: papio hamadryas, in vivo
[19] = Drug uptake in cerebellum of baboon brain at 100 MBq, iv administered 5 mins after haloperidol challenge measured within 5 mins by microPET imaging; assay type: ADME, organism-based; conditions: papio hamadryas, in vivo
[20] = Drug uptake in thalamus of baboon brain at 100 MBq, iv administered 5 mins after haloperidol challenge measured within 3 mins by microPET imaging; assay type: ADME, organism-based; conditions: papio hamadryas, in vivo
[21] = Drug uptake in thalamus of baboon brain at 100 MBq, iv administered 5 mins after haloperidol challenge measured within 5 mins by microPET imaging; assay type: ADME, organism-based; conditions: papio hamadryas, in vivo
[22] = Drug uptake in left striatum of baboon brain at 100 MBq, iv measured after 60 mins by microPET imaging; assay type: ADME, organism-based; conditions: papio hamadryas, in vivo, 1 h
[23] = Drug uptake in thalamus of baboon brain at 100 MBq, iv measured after 60 mins by microPET imaging; assay type: ADME, organism-based; conditions: papio hamadryas, in vivo, 1 h
[24] = Drug uptake in left striatum of baboon brain at 100 MBq, iv administered 5 mins after haloperidol challenge measured within 3 mins by microPET imaging; assay type: ADME, organism-based; conditions: papio hamadryas, in vivo
[25] = Drug uptake in cerebellum of baboon brain at 100 MBq, iv administered 5 mins after haloperidol challenge measured after 60 mins by microPET imaging; assay type: ADME, organism-based; conditions: papio hamadryas, in vivo, 1 h
[26] = Drug uptake in left striatum of baboon brain at 100 MBq, iv administered 5 mins after haloperidol challenge measured within 5 mins by microPET imaging; assay type: ADME, organism-based; conditions: papio hamadryas, in vivo
[27] = Drug uptake in cortex of baboon brain at 100 MBq, iv measured within 5 mins by microPET imaging; assay type: ADME, organism-based; conditions: papio hamadryas, in vivo
[28] = Drug uptake in left striatum of baboon brain at 100 MBq, iv administered 5 mins after haloperidol challenge measured after 60 mins by microPET imaging; assay type: ADME, organism-based; conditions: papio hamadryas, in vivo, 1 h
[29] = Drug uptake in cerebellum of baboon brain at 100 MBq, iv administered 5 mins after haloperidol challenge measured within 3 mins by microPET imaging; assay type: ADME, organism-based; conditions: papio hamadryas, in vivo
[30] = Drug uptake in cortex of baboon brain at 100 MBq, iv administered 5 mins after haloperidol challenge measured after 60 mins by microPET imaging; assay type: ADME, organism-based; conditions: papio hamadryas, in vivo, 1 h
[31] = Drug uptake in left striatum of baboon brain at 100 MBq, iv measured within 5 mins by microPET imaging; assay type: ADME, organism-based; conditions: papio hamadryas, in vivo
[32] = Binding affinity to sigma 2 receptor
[33] = target: T1, Sigma non-opioid intracellular receptor 1; test: Binding affinity to sigma 1 receptor

T1 sequence (Q99720 whole entry): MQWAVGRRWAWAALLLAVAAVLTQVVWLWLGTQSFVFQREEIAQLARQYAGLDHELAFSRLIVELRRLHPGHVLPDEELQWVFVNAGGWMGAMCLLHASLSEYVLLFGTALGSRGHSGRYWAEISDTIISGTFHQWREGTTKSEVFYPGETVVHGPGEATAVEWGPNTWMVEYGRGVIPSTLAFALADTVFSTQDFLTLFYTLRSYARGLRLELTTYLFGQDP
Sigma non-opioid intracellular receptor 1 (Cavia porcellus, UniProt Q60492), sequence (Q60492 whole entry): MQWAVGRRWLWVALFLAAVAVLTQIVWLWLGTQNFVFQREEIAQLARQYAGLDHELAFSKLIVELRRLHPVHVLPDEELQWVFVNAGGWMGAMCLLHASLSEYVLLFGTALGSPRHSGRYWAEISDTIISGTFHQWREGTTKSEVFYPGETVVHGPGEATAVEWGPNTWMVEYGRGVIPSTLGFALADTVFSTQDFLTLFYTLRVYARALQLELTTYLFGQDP

SMILES: FCCC1OC2(CCN(Cc3ccccc3)CC2)c2ccccc21 (stereo not drawn)
pKi [1]: 9.23 | pKi [2]: 6.11

pKi [3]: 8.47 | pKi [4]: 6.39
SMILES: O=C(NC1CCN(Cc2ccccc2)CC1)c1ccccc1F

pIC50 (Rhesus monkey [5]): 8.17 | pIC50 (Rhesus monkey [6]): 8.51
SMILES: COc1cc(CCN2CCN(CCCc3ccc(F)cc3)CC2)ccc1OCCF

Drug uptake [7]: Active | Drug uptake [8]: Active | Drug uptake [9]: Not Active | Drug uptake [10]: Active | Drug uptake [11]: Active | Drug uptake [12]: Not Active | Drug uptake [13]: Not Active | Drug uptake [14]: Active | Drug uptake [15]: Active | Drug uptake [16]: Active | Drug uptake [17]: Not Active | Drug uptake [18]: Active | Drug uptake [19]: Not Active | Drug uptake [20]: Active | Drug uptake [21]: Not Active | Drug uptake [22]: Active | Drug uptake [23]: Active | Drug uptake [24]: Active | Drug uptake [25]: Not Active | Drug uptake [26]: Not Active | Drug uptake [27]: Active | Drug uptake [28]: Not Active | Drug uptake [29]: Active | Drug uptake [30]: Not Active | Drug uptake [31]: Active
SMILES: [18F]CCOc1ccc(CN2CCN(Cc3cc4ccccc4o3)CC2)cc1

pKi [32]: 6.84 | pKi [33]: 8.37
SMILES: N#Cc1ccc(OCC2CCN(CCCF)CC2)cc1
